Values quoted from earlier work as cited in article PMC12308805, “Ultrahigh-Throughput Virtual Screening Strategies against PPI Targets: A Case Study of STAT Inhibitors” (Journal of Chemical Information and Modeling, 2025).
Square brackets hold non-standard residues; d marks the D form. Peptide text beside a SMILES is read from it. * marks the point of attachment. Isobutyryl = CC(C)C(=O)*

test system: STAT3; settings: sheet 6QHD_actives_decoys, retrospective screening set for STAT3 SH2 domain (PDB 6QHD); decoys are presumed inactives, not tested; ref DUD-E; cited from earlier work

Compound | Type
Cc1ccc(OCC(=O)NNC(=O)CCCCC(=O)NNC(=O)COc2ccc(C)cc2Br)c(Br)c1 [Decoy784] | Inactive (Decoy)
CC(/C=C/C=C(\C)C(=O)O)=C\C=C\C=C(C)\C=C\C=C(/C)C(=O)O[C@@H]1O[C@H](CO[C@@H]2O[C@H](CO)[C@@H](O)[C@H](O)[C@H]2O)[C@@H](O)[C@H](O)[C@H]1O [Decoy785] | Inactive (Decoy)
COc1cc(/C=N/N=C2\NC(=O)[C@H](CC(=O)O)S2)cc(Br)c1OS(=O)(=O)c1ccc(NC(C)=O)cc1 [Decoy786] | Inactive (Decoy)
COc1cc(/C=N/NC(=O)CSc2nnc(-c3cccc([N+](=O)[O-])c3)n2N)c([N+](=O)[O-])cc1O [Decoy787] | Inactive (Decoy)
Cc1nn(C)cc1CN1CCN(C(=S)Nc2ccc(S(=O)(=O)Nc3ncccn3)cc2)CC1 [Decoy788] | Inactive (Decoy)
CCOC(=O)c1ccc(NC(=O)CSc2nnc(CNC(=O)c3ccco3)n2-c2ccc(OCC)cc2)cc1 [Decoy789] | Inactive (Decoy)
C=CCOc1ccc([C@H]2C(C(=O)c3ccc(S(=O)(=O)N(C)C)cc3)=C(O)C(=O)N2CCCN(C)C)cc1OC [Decoy790] | Inactive (Decoy)
OC[C@@H](O)[C@H](O[C@@H]1O[C@H](CO)[C@@H](O)[C@H](O)[C@H]1O)[C@@H](O)C(/C=N/Nc1ccccc1)=N/Nc1ccccc1 [Decoy791] | Inactive (Decoy)
CCOC(=O)N[C@@](Nc1ccc(S(=O)(=O)Nc2ncccn2)cc1)(C(=O)OCC)C(F)(F)F [Decoy792] | Inactive (Decoy)
Nc1nnc(S(=O)(=O)N[C@]2(C(F)(F)F)C(=O)N=C3C2=C(O)NC(=O)N3Cc2cccnc2)s1 [Decoy794] | Inactive (Decoy)
O=c1cc(-c2ccc(O)c(O)c2)oc2cc(O[C@@H]3O[C@H](CO[C@@H]4OC[C@@H](O)[C@@H](O)[C@H]4O)[C@@H](O)[C@H](O)[C@H]3O)cc(O)c12 [Decoy795] | Inactive (Decoy)
CCOc1ccc(-n2c(Cc3cc(=O)[nH]c(=O)[nH]3)nnc2SCC(=O)Nc2ccc(F)cc2)cc1 [Decoy796] | Inactive (Decoy)
CCCCSc1nnc(/N=C(\O)CSc2n[nH]c(N/N=C/c3c(C)nn(C(C)C)c3C)n2)s1 [Decoy797] | Inactive (Decoy)
CCOc1cccc(/C=N/NC(=O)CSc2nnc(-c3cc(OC)c(OC)c(OC)c3)n2-c2ccccc2)c1O [Decoy798] | Inactive (Decoy)
CCOc1ccc2[nH]c(=O)c(CN(CCc3ccc(OC)c(OC)c3)Cc3nnnn3C3CCCC3)cc2c1 [Decoy799] | Inactive (Decoy)
COc1cc(C(=O)OC[C@]2(O)CO[C@H](OC[C@@H]3O[C@@H](Oc4c(OC)cc(CO)cc4OC)[C@H](O)[C@H](O)[C@@H]3O)[C@@H]2O)cc(OC)c1O [Decoy800] | Inactive (Decoy)
Cc1nnc(CSc2nnc(NC(=O)CSc3n[nH]c(N/N=C/c4ccncc4)n3)s2)o1 [Decoy801] | Inactive (Decoy)
CCN1C[C@]2(COC)[C@H](O)C[C@H](OC)[C@@]34[C@@H]2[C@@H](OC)[C@@H]([C@@H]13)[C@]1(OC(C)=O)[C@H]2[C@@H](OC(=O)c3ccccc3)[C@](O)(C[C@]24O)[C@@H](OC)[C@@H]1O [Decoy802] | Inactive (Decoy)
CCSc1nnc(NC(=O)CSc2n[nH]c(N/N=C/c3ccc(F)cc3)n2)s1 [Decoy803] | Inactive (Decoy)

Compound | Type
CNC(=O)[C@H](CC(C)C)NC(=O)[C@H](Cc1c[nH]cn1)NC(=O)[C@@H](C)NC(=O)[C@@H](NC(=O)[C@H](C)NC(=O)[C@H](Cc1c[nH]c2ccccc12)NC(=O)[C@H](Cc1c[nH]cn1)NC(=O)C(C)C)C(C)C [Decoy804] (Isobutyryl-HWAV[dA]HL-NHMe) | Inactive (Decoy)
CNC(=O)[C@H](CC(C)C)NC(=O)[C@H](Cc1c[nH]cn1)NC(=O)[C@@H](C)NC(=O)[C@@H](NC(=O)[C@H](C)NC(=O)[C@H](Cc1c[nH]c2ccccc12)NC(=O)[C@H](Cc1cnc[nH]1)NC(=O)C(C)C)C(C)C [Decoy805] (Isobutyryl-HWAV[dA]HL-NHMe) | Inactive (Decoy)
CNC(=O)[C@H](CC(C)C)NC(=O)[C@H](Cc1cnc[nH]1)NC(=O)[C@@H](C)NC(=O)[C@@H](NC(=O)[C@H](C)NC(=O)[C@H](Cc1c[nH]c2ccccc12)NC(=O)[C@H](Cc1cnc[nH]1)NC(=O)C(C)C)C(C)C [Decoy806] (Isobutyryl-HWAV[dA]HL-NHMe) | Inactive (Decoy)
COC(=O)c1sc2cc(SCC(=O)Nc3cc(OC)c(OC)c(OC)c3)ccc2c1/N=C(\O)C(F)(F)F [Decoy807] | Inactive (Decoy)
COCCNC(=O)[C@@H](c1ccc(F)cc1)N(C(=O)c1snc(C(N)=O)c1N)c1ccc2c(c1)OCO2 [Decoy808] | Inactive (Decoy)
CC(=O)Nc1ccc(S(=O)(=O)NCCCCNc2ccc([N+](=O)[O-])c3cccnc23)cc1 [Decoy809] | Inactive (Decoy)
COC(=O)Cc1c(C(=O)OC)sc(NC(=O)CSc2nc(C(C)(C)C)n[nH]2)c1C(=O)OC [Decoy810] | Inactive (Decoy)
Cc1nnc(/N=C(\O)CSc2nnc(NN=C(Cc3ccccc3)Cc3ccccc3)n2N)s1 [Decoy811] | Inactive (Decoy)
CC(O)(O)C(=O)OCC(C)(COC(=O)C(C)(O)O)C(=O)OCC(C)(COC(=O)C(C)(COC(=O)C(C)(O)O)COC(=O)C(C)(O)O)C(=O)OCCS [Decoy812] | Inactive (Decoy)
CCCCNC(=O)[C@@H](c1cc([N+](=O)[O-])ccc1Cl)N(Cc1ccc(C)o1)C(=O)c1ccccc1O [Decoy813] | Inactive (Decoy)
CSCC[C@@H](NC(=O)[C@H](N)Cc1ccc(O)cc1)C(=O)N[C@H](Cc1ccccc1)C(=O)N[C@H](Cc1c[nH]cn1)C(=O)N[C@@H](CC(C)C)C(=O)N[C@H](CCSC)C(=O)N[C@@H](CC(=O)O)C(N)=O [Decoy814] (H-[dY][dM][dF][dH]L[dM]D-NH2) | Inactive (Decoy)
COc1cc(/C=C/C(=O)OC[C@H]2O[C@H](O[C@]3(CO)O[C@H](CO)[C@@H](O)[C@@H]3O)[C@H](O)[C@@H](O)[C@@H]2O)cc(OC)c1O [Decoy815] | Inactive (Decoy)
COc1cc(C[C@@]2(O)CO[C@H](c3ccc(O[C@@H]4O[C@H](CO)[C@@H](O)[C@H](O)[C@H]4O)c(OC)c3)[C@H]2CO)ccc1O [Decoy816] | Inactive (Decoy)
COc1cc([C@@H]2OC[C@H]3[C@@H]2CO[C@@H]3c2cc(OC)c(O[C@@H]3O[C@H](CO)[C@@H](O)[C@H](O)[C@H]3O[C@@H]3OC[C@](O)(CO)[C@H]3O)c(OC)c2)cc(OC)c1O [Decoy817] | Inactive (Decoy)
CCOC(=O)C1=C(C)NC(=O)N[C@H]1c1ccc(OCC(=O)N/N=C/c2ccc(SC)cc2)c(OC)c1 [Decoy818] | Inactive (Decoy)
O=S1(=O)CC[C@@H](NCOC(COCN[C@H]2CCS(=O)(=O)C2)COCN[C@H]2CCS(=O)(=O)C2)C1 [Decoy819] | Inactive (Decoy)
CCOC(=O)CCC(=O)O[C@H]1[C@@H](O[C@@H]2[C@H](C)[C@H](O[C@@H]3C[C@@](C)(OC)[C@H](O)[C@H](C)O3)[C@H](C)C(=O)O[C@@H](CC)[C@@](C)(O)[C@H](O)[C@H](C)C(=O)[C@H](C)C[C@@]2(C)O)O[C@@H](C)C[C@H]1N(C)C [Decoy820] | Inactive (Decoy)
CN(Cc1cnc2nc(N)nc(N)c2n1)c1ccc(C(=O)N[C@H](CCC(=O)NCCNC(=O)CCCC[C@@H]2SC[C@@H]3NC(=O)N[C@@H]32)C(=O)O)cc1 [Decoy821] | Inactive (Decoy)
CC(C)COC(=O)c1ccc(Nc2ncnc(NNC(=O)Cc3ccc([N+](=O)[O-])cc3)c2[N+](=O)[O-])cc1 [Decoy822] | Inactive (Decoy)
